Data from the supplement of paper PMC8882468.

test system: HCI-012 (organoid from a breast cancer xenograft); experiment: CTG-3D luminescence at 96 h relative to day-0 seeding control (ratio to day 0); higher = more growth / less cytotoxicity; PDxO 3D drug screen, 96 h, CTG-3D normalised to day-0 seeding control.; settings: 10 µM; days in culture: 162

First: COc1cc2c(Oc3ccc4[nH]c(C)cc4c3F)ncnc2cc1OCCCN1CCCC1 [cediranib]
Second: Cc1cc(Nc2ncnc3ccc(NC4=NC(C)(C)CO4)cc23)ccc1Oc1ccn2ncnc2c1 [tucatinib]
The “CTG-3D luminescence at 96 h” value of the first is lower: 0.0254 for the first, 2.41 for the second.

Going from `CC(C)n1nc(-c2ccc3oc(N)nc3c2)c2c(N)ncnc21` [sapanisertib] to `C=CCn1c(=O)c2cnc(Nc3ccc(N4CCN(C)CC4)cc3)nc2n1-c1cccc(C(C)(C)O)n1` [adavosertib], the “CTG-3D luminescence at 96 h” value falls from 0.846 to 0.304.

First: C[C@H](NC(=O)CCC(F)(F)F)C(=O)N[C@@H]1C(=O)N(CCO)c2ncccc2-c2ccccc21 [crenigacestat]
Second: O=C(/C=C/c1cccnc1)NCCCCC1CCN(C(=O)c2ccccc2)CC1 [FK866]
The “CTG-3D luminescence at 96 h” value of the first is higher: 2.96 for the first, 0.085 for the second.

Compared with `C[C@]12CC[C@@H]3c4ccc(O)cc4C[C@@H](CCCCCCCCC[S+]([O-])CCCC(F)(F)C(F)(F)F)[C@H]3[C@@H]1CC[C@@H]2O` (some centres not stated) [fulvestrant], `O=C(c1ccc(F)c(F)c1Nc1ccc(I)cc1F)N1CC(O)([C@@H]2CCCCN2)C1` [cobimetinib] is lower in “CTG-3D luminescence at 96 h” value: 3.17 for the first, 1.45 for the second.

In the case of `CS(=O)(=O)c1ccc(C(=O)Nc2ccc(Cl)c(-c3ccccn3)c2)c(Cl)c1` [vismodegib], the “CTG-3D luminescence at 96 h” value is reported as 2.69.

same assay, conditions: 10 µM; days in culture: 201

First: COc1cc2c(Oc3ccc4[nH]c(C)cc4c3F)ncnc2cc1OCCCN1CCCC1 [cediranib]
Second: Cc1cc(Nc2ncnc3ccc(NC4=NC(C)(C)CO4)cc23)ccc1Oc1ccn2ncnc2c1 [tucatinib]
The “CTG-3D luminescence at 96 h” value of the first is lower: 0.0167 for the first, 1.37 for the second.

First: CC(C)n1nc(-c2ccc3oc(N)nc3c2)c2c(N)ncnc21 [sapanisertib]
Second: C=CCn1c(=O)c2cnc(Nc3ccc(N4CCN(C)CC4)cc3)nc2n1-c1cccc(C(C)(C)O)n1 [adavosertib]
The “CTG-3D luminescence at 96 h” value of the first is higher: 0.293 for the first, 0.091 for the second.

First: C[C@H](NC(=O)CCC(F)(F)F)C(=O)N[C@@H]1C(=O)N(CCO)c2ncccc2-c2ccccc21 [crenigacestat]
Second: O=C(/C=C/c1cccnc1)NCCCCC1CCN(C(=O)c2ccccc2)CC1 [FK866]
The “CTG-3D luminescence at 96 h” value of the first is higher: 1.67 for the first, 0.0435 for the second.

First: C[C@]12CC[C@@H]3c4ccc(O)cc4C[C@@H](CCCCCCCCC[S+]([O-])CCCC(F)(F)C(F)(F)F)[C@H]3[C@@H]1CC[C@@H]2O (some centres not stated) [fulvestrant]
Second: O=C(c1ccc(F)c(F)c1Nc1ccc(I)cc1F)N1CC(O)([C@@H]2CCCCN2)C1 [cobimetinib]
The “CTG-3D luminescence at 96 h” value of the first is higher: 1.48 for the first, 1.02 for the second.

In the case of `CS(=O)(=O)c1ccc(C(=O)Nc2ccc(Cl)c(-c3ccccn3)c2)c(Cl)c1` [vismodegib], the “CTG-3D luminescence at 96 h” value is reported as 1.8.

same assay, conditions: 100 µM; days in culture: 143

First: COc1cc2c(Oc3ccc4[nH]c(C)cc4c3F)ncnc2cc1OCCCN1CCCC1 [cediranib]
Second: Cc1cc(Nc2ncnc3ccc(NC4=NC(C)(C)CO4)cc23)ccc1Oc1ccn2ncnc2c1 [tucatinib]
The “CTG-3D luminescence at 96 h” value of the first is lower: -0.00161 for the first, 0.0289 for the second.

Compared with `CC(C)n1nc(-c2ccc3oc(N)nc3c2)c2c(N)ncnc21` [sapanisertib], `C=CCn1c(=O)c2cnc(Nc3ccc(N4CCN(C)CC4)cc3)nc2n1-c1cccc(C(C)(C)O)n1` [adavosertib] is lower in “CTG-3D luminescence at 96 h” value: 0.181 for the first, 0.0167 for the second.

Compared with `C[C@H](NC(=O)CCC(F)(F)F)C(=O)N[C@@H]1C(=O)N(CCO)c2ncccc2-c2ccccc21` [crenigacestat], `O=C(/C=C/c1cccnc1)NCCCCC1CCN(C(=O)c2ccccc2)CC1` [FK866] is lower in “CTG-3D luminescence at 96 h” value: 2.65 for the first, 0.175 for the second.

Going from `C[C@]12CC[C@@H]3c4ccc(O)cc4C[C@@H](CCCCCCCCC[S+]([O-])CCCC(F)(F)C(F)(F)F)[C@H]3[C@@H]1CC[C@@H]2O` (some centres not stated) [fulvestrant] to `O=C(c1ccc(F)c(F)c1Nc1ccc(I)cc1F)N1CC(O)([C@@H]2CCCCN2)C1` [cobimetinib], the “CTG-3D luminescence at 96 h” value falls from 2.25 to -0.00459.

`CS(=O)(=O)c1ccc(C(=O)Nc2ccc(Cl)c(-c3ccccn3)c2)c(Cl)c1` [vismodegib] was tested, and the “CTG-3D luminescence at 96 h” value was 0.427.

same assay, conditions: 100 µM; days in culture: 162

Compared with `COc1cc2c(Oc3ccc4[nH]c(C)cc4c3F)ncnc2cc1OCCCN1CCCC1` [cediranib], `Cc1cc(Nc2ncnc3ccc(NC4=NC(C)(C)CO4)cc23)ccc1Oc1ccn2ncnc2c1` [tucatinib] is higher in “CTG-3D luminescence at 96 h” value: -0.00236 for the first, 0.0168 for the second.

Compared with `CC(C)n1nc(-c2ccc3oc(N)nc3c2)c2c(N)ncnc21` [sapanisertib], `C=CCn1c(=O)c2cnc(Nc3ccc(N4CCN(C)CC4)cc3)nc2n1-c1cccc(C(C)(C)O)n1` [adavosertib] is lower in “CTG-3D luminescence at 96 h” value: 0.197 for the first, 0.0282 for the second.

Compared with `C[C@H](NC(=O)CCC(F)(F)F)C(=O)N[C@@H]1C(=O)N(CCO)c2ncccc2-c2ccccc21` [crenigacestat], `O=C(/C=C/c1cccnc1)NCCCCC1CCN(C(=O)c2ccccc2)CC1` [FK866] is lower in “CTG-3D luminescence at 96 h” value: 2.74 for the first, 0.127 for the second.

First: C[C@]12CC[C@@H]3c4ccc(O)cc4C[C@@H](CCCCCCCCC[S+]([O-])CCCC(F)(F)C(F)(F)F)[C@H]3[C@@H]1CC[C@@H]2O (some centres not stated) [fulvestrant]
Second: O=C(c1ccc(F)c(F)c1Nc1ccc(I)cc1F)N1CC(O)([C@@H]2CCCCN2)C1 [cobimetinib]
The “CTG-3D luminescence at 96 h” value of the first is higher: 2.71 for the first, 0.00171 for the second.

`CS(=O)(=O)c1ccc(C(=O)Nc2ccc(Cl)c(-c3ccccn3)c2)c(Cl)c1` [vismodegib] was tested, and the “CTG-3D luminescence at 96 h” value was 0.492.

same assay, conditions: 100 µM; days in culture: 201

Compared with `COc1cc2c(Oc3ccc4[nH]c(C)cc4c3F)ncnc2cc1OCCCN1CCCC1` [cediranib], `Cc1cc(Nc2ncnc3ccc(NC4=NC(C)(C)CO4)cc23)ccc1Oc1ccn2ncnc2c1` [tucatinib] is higher in “CTG-3D luminescence at 96 h” value: -0.00095 for the first, 0.053 for the second.

Going from `CC(C)n1nc(-c2ccc3oc(N)nc3c2)c2c(N)ncnc21` [sapanisertib] to `C=CCn1c(=O)c2cnc(Nc3ccc(N4CCN(C)CC4)cc3)nc2n1-c1cccc(C(C)(C)O)n1` [adavosertib], the “CTG-3D luminescence at 96 h” value falls from 0.0781 to 0.0326.

First: C[C@H](NC(=O)CCC(F)(F)F)C(=O)N[C@@H]1C(=O)N(CCO)c2ncccc2-c2ccccc21 [crenigacestat]
Second: O=C(/C=C/c1cccnc1)NCCCCC1CCN(C(=O)c2ccccc2)CC1 [FK866]
The “CTG-3D luminescence at 96 h” value of the first is higher: 2.55 for the first, 0.115 for the second.

Going from `C[C@]12CC[C@@H]3c4ccc(O)cc4C[C@@H](CCCCCCCCC[S+]([O-])CCCC(F)(F)C(F)(F)F)[C@H]3[C@@H]1CC[C@@H]2O` (some centres not stated) [fulvestrant] to `O=C(c1ccc(F)c(F)c1Nc1ccc(I)cc1F)N1CC(O)([C@@H]2CCCCN2)C1` [cobimetinib], the “CTG-3D luminescence at 96 h” value falls from 2.1 to -0.00449.

`CS(=O)(=O)c1ccc(C(=O)Nc2ccc(Cl)c(-c3ccccn3)c2)c(Cl)c1` [vismodegib] was tested, and the “CTG-3D luminescence at 96 h” value was 0.943.

same assay, conditions: 625 fM; days in culture: 143

Going from `COc1cc2c(Oc3ccc4[nH]c(C)cc4c3F)ncnc2cc1OCCCN1CCCC1` [cediranib] to `Cc1cc(Nc2ncnc3ccc(NC4=NC(C)(C)CO4)cc23)ccc1Oc1ccn2ncnc2c1` [tucatinib], the “CTG-3D luminescence at 96 h” value rises from 2 to 2.05.

Going from `CC(C)n1nc(-c2ccc3oc(N)nc3c2)c2c(N)ncnc21` [sapanisertib] to `C=CCn1c(=O)c2cnc(Nc3ccc(N4CCN(C)CC4)cc3)nc2n1-c1cccc(C(C)(C)O)n1` [adavosertib], the “CTG-3D luminescence at 96 h” value rises from 1.68 to 2.06.

Going from `C[C@H](NC(=O)CCC(F)(F)F)C(=O)N[C@@H]1C(=O)N(CCO)c2ncccc2-c2ccccc21` [crenigacestat] to `O=C(/C=C/c1cccnc1)NCCCCC1CCN(C(=O)c2ccccc2)CC1` [FK866], the “CTG-3D luminescence at 96 h” value rises from 1.78 to 1.84.

Going from `C[C@]12CC[C@@H]3c4ccc(O)cc4C[C@@H](CCCCCCCCC[S+]([O-])CCCC(F)(F)C(F)(F)F)[C@H]3[C@@H]1CC[C@@H]2O` (some centres not stated) [fulvestrant] to `O=C(c1ccc(F)c(F)c1Nc1ccc(I)cc1F)N1CC(O)([C@@H]2CCCCN2)C1` [cobimetinib], the “CTG-3D luminescence at 96 h” value falls from 1.92 to 1.71.

For `CS(=O)(=O)c1ccc(C(=O)Nc2ccc(Cl)c(-c3ccccn3)c2)c(Cl)c1` [vismodegib], the “CTG-3D luminescence at 96 h” value was 1.88.

same assay, conditions: 625 fM; days in culture: 162

First: COc1cc2c(Oc3ccc4[nH]c(C)cc4c3F)ncnc2cc1OCCCN1CCCC1 [cediranib]
Second: Cc1cc(Nc2ncnc3ccc(NC4=NC(C)(C)CO4)cc23)ccc1Oc1ccn2ncnc2c1 [tucatinib]
The “CTG-3D luminescence at 96 h” value of the first is higher: 3.02 for the first, 2.94 for the second.

Compared with `CC(C)n1nc(-c2ccc3oc(N)nc3c2)c2c(N)ncnc21` [sapanisertib], `C=CCn1c(=O)c2cnc(Nc3ccc(N4CCN(C)CC4)cc3)nc2n1-c1cccc(C(C)(C)O)n1` [adavosertib] is higher in “CTG-3D luminescence at 96 h” value: 2.82 for the first, 3.03 for the second.

Compared with `C[C@H](NC(=O)CCC(F)(F)F)C(=O)N[C@@H]1C(=O)N(CCO)c2ncccc2-c2ccccc21` [crenigacestat], `O=C(/C=C/c1cccnc1)NCCCCC1CCN(C(=O)c2ccccc2)CC1` [FK866] is higher in “CTG-3D luminescence at 96 h” value: 2.57 for the first, 2.72 for the second.

Compared with `C[C@]12CC[C@@H]3c4ccc(O)cc4C[C@@H](CCCCCCCCC[S+]([O-])CCCC(F)(F)C(F)(F)F)[C@H]3[C@@H]1CC[C@@H]2O` (some centres not stated) [fulvestrant], `O=C(c1ccc(F)c(F)c1Nc1ccc(I)cc1F)N1CC(O)([C@@H]2CCCCN2)C1` [cobimetinib] is lower in “CTG-3D luminescence at 96 h” value: 2.92 for the first, 2.91 for the second.

In the case of `CS(=O)(=O)c1ccc(C(=O)Nc2ccc(Cl)c(-c3ccccn3)c2)c(Cl)c1` [vismodegib], the “CTG-3D luminescence at 96 h” value is reported as 3.

same assay, conditions: 625 fM; days in culture: 201

First: COc1cc2c(Oc3ccc4[nH]c(C)cc4c3F)ncnc2cc1OCCCN1CCCC1 [cediranib]
Second: Cc1cc(Nc2ncnc3ccc(NC4=NC(C)(C)CO4)cc23)ccc1Oc1ccn2ncnc2c1 [tucatinib]
The “CTG-3D luminescence at 96 h” value of the first is lower: 1.66 for the first, 1.83 for the second.

First: CC(C)n1nc(-c2ccc3oc(N)nc3c2)c2c(N)ncnc21 [sapanisertib]
Second: C=CCn1c(=O)c2cnc(Nc3ccc(N4CCN(C)CC4)cc3)nc2n1-c1cccc(C(C)(C)O)n1 [adavosertib]
The “CTG-3D luminescence at 96 h” value of the first is higher: 1.73 for the first, 1.71 for the second.

Going from `C[C@H](NC(=O)CCC(F)(F)F)C(=O)N[C@@H]1C(=O)N(CCO)c2ncccc2-c2ccccc21` [crenigacestat] to `O=C(/C=C/c1cccnc1)NCCCCC1CCN(C(=O)c2ccccc2)CC1` [FK866], the “CTG-3D luminescence at 96 h” value falls from 1.72 to 1.67.

Compared with `C[C@]12CC[C@@H]3c4ccc(O)cc4C[C@@H](CCCCCCCCC[S+]([O-])CCCC(F)(F)C(F)(F)F)[C@H]3[C@@H]1CC[C@@H]2O` (some centres not stated) [fulvestrant], `O=C(c1ccc(F)c(F)c1Nc1ccc(I)cc1F)N1CC(O)([C@@H]2CCCCN2)C1` [cobimetinib] is lower in “CTG-3D luminescence at 96 h” value: 1.53 for the first, 1.35 for the second.

`CS(=O)(=O)c1ccc(C(=O)Nc2ccc(Cl)c(-c3ccccn3)c2)c(Cl)c1` [vismodegib] was tested, and the “CTG-3D luminescence at 96 h” value was 1.59.
